According to patent US11413278B2, “Compounds and methods for promoting stress resistance” (priority 2015, dated 2022):
pEC50: −log10 of the molar value. “Also recorded” adds a separate entry of the source. Where two headings read alike, the source gives them in different places.

Key:
[1] = tested on: HTB-178 lung tumor cells (EGFR+, PIK3CA+, RB1−, TP53−); test: Killing effects on HTB-178 tumor cells; format: cell-based, human; details: Assay 1(y), at 10 uM
WI-38 cells [2] = test: MMS resistance assay; format: cell-based, human; details: YES/NO; for Assay 3: MMS-resistant: * indicates partial; for Assay 5: Triple resistant: H2O2, cadmium and MMS
Procedure: (§1) For many stress conditions tested previously, one significant correlation to longevity is the cellular resistance to H2O2 or CdCl2. Applicants then tested these small molecules, at five different final concentrations (0.25 μM to 20 μM), for cadmium and MMS resistance in WI-38 cells.
(§2) The setups on 384-well plates and incubation times were the same as for H2O2 until the time of incubation with the stressors, which was 12 hours for both cadmium and MMS assays. Applicants tested several conditions, including conditions used to assay fibroblasts from long-lived animals (Salmon et al., 2005). These conditions produced better results with the positive controls (KEAP1 and AKT1 siRNAs) in the MMS assay. Thus, for MMS, the cells were shifted from growth media—OptiMEM+10% FBS, to DMEM (Gibco)+2% BSA (no serum) just before adding small molecules, which occurred 24 hours before MMS addition.
(§3) Isolated small molecules were tested for MMS and cadmium resistance twice in two independent assays. Each small molecule was analyzed at five different concentrations (0.25 μM to 20 μM final concentration), with technical triplicates for each dose. Data were analyzed using a global variance t-test.

NRF2 [3] = test: qPCR analysis of NRF2-regulated genes; format: cell-based, human; details: Homo sapiens, 24 h, Assay 12(o), at 10 uM, qPCR
Procedure: (§4) For qPCR analysis, WI-38 cells were treated with small molecules (at 10 μM) (biological quadruplicates) for 24 hrs and processed for RNA isolation and reverse transcription (RT) with the Cells-to-Ct Kit (Life Technologies), following manufacturer's instructions. RT products were diluted with H2O and used for qPCR analysis on an ABI 7300 system (Life Technologies) (technical triplicates). Relative expression levels of target genes were normalized to the genes B2M, PPIA and GAPDH. To knock down the expression of FOXO3 or NRF2, WI-38 cells were transfected, using the RNAiMAX reagents (Life Technologies), with siRNA oligos (at 10 nM final concentration, 10 ml culture medium) for FOXO3 (Life Technologies) or NRF2 (Integrated DNA Technologies) on 10-cm petri dishes for 36 hrs, and then detached and aliquoted onto 96-well (for qPCR analysis) or 384-well plates (for H2O2-stress treatment). ˜24 hrs later, small molecules were introduced and incubated with cells for 24 hrs. Cells were then either processed with the Cells-to-Ct Kit to prepare RT products for qPCR analysis or subjected to H2O2 (700 μM) for 3 hrs and assayed for viability. The knockdown efficiency of FOXO3 or NRF2 was checked at 36 hrs post-transfection and at the end as well.
(§5) For qPCR analysis, WI-38 cells were treated with small molecules (at 10 μM) (biological quadruplicate) for 24 hrs and processed for RNA isolation and reverse transcription (RT) with the Cells-to-Ct Kit (Life Technologies), following manufacturer's instructions. RT products were diluted with H2O and used for qPCR analysis on a LightCycler 480 system (Roche) (technical triplicates). Relative expression levels of target genes were normalized to the genes B2M, PPIA and GAPDH. To knock down the expression of FOXO3 or NRF2, WI-38 cells were transfected with siRNA oligos (at 10 nM final concentration) for FOXO3 (Life Technologies) or NRF2 on 10-cm petri dish for 36 hrs, and then detached and aliquoted onto 96-well plates. ˜24 hrs later, small molecules were introduced and incubated with cells for 24 hrs. Cells were then processed with the Cells-to-Ct Kit to prepare RT products for qPCR analysis. The knockdown efficiency of FOXO3 or NRF2 was checked at 36 hrs post-transfection and at the end as well.
NRF2/SKN-1, the oxidative stress and xenobiotic phase 2 detoxification protein, can extend animal lifespan (Sykiotis and Bohmann, 2008; Tullet et al., 2008). Applicants analyzed these small molecules for their ability to increase the expression of NRF2-regulated genes, including HMOX1 (heme oxygenase (decycling) 1; anti-oxidant), NQO1 (NAD(P)H dehydrogenase, quinone 1; phase 2 detoxification enzyme), GCLC (glutamate-cysteine ligase, catalytic) and GSTM1 (glutathionine S transferase) (Hur and Gray, 2011; Suzuki et al., 2013).

WI-38 cells [4] = test: CdCl2 (cadmium) resistance assay; format: cell-based, human; details: YES/NO; for Assay 2: Cadmium-resistant: * indicates partial
Procedure: as §1, §2, §3

FOXO3 = test: qPCR analysis of FOXO3-regulated genes; format: cell-based, human; details: Homo sapiens, 24 h, Assay 10(m), at 10 uM, qPCR
Procedure: as §4, §5
Many perturbations that increase lifespan and stress resistance in animals do so in a FOXO-dependent fashion (Kenyon, 2010c). Humans have several FOXO genes, but FOXO3, which promotes stress resistance in mammalian cell culture (Kops et al., 2002; Nemoto and Finkel, 2002; Tran et al., 2003), is the one that has been linked to exceptional longevity in humans (Anselmi et al., 2009; Flachsbart et al., 2009; Li et al., 2009; Pawlikowska et al., 2009; Soerensen et al., 2010; Willcox et al., 2008). FOXO1, in contrast, appears to be responsible for some symptoms of diabetes in mouse models (Cheng and White, 2011). For this reason, applicants have focused on analyzing potential ability of our small molecules to activate FOXO3. […] Another 4 molecules (Gr-7A, Gr-7C, O12 and O23) could induce robust expression (greater than 1.5-fold) of at least 2 FOXO3 target genes.

WI-38 cells [5] = details: for Assay 1: H2O2-resistant: YES/NO, if NO, possibly due to repeated freezing/thawing of stocks; for pEC50: read-out: Est. ED50, dose response 0.6-20 μM, H2O2-resistance
C. elegans = C. elegans lifespan assays (liquid and plate); format: in vivo, Caenorhabditis elegans; details: Caenorhabditis elegans, at 66 uM
human PARP1 = molecular target: T1, human PARP1 (Homo sapiens, UniProt P09874); test: PARP inhibitor assay (HT Fluorescent Homogeneous PARP Inhibition Assay Kit); format: biochemical; details: 10 μM, in vitro
T1 construct: purchased Trevigen
Procedure: (§6) The assay was performed with the HT Fluorescent Homogeneous PARP Inhibition Assay Kit (Trevigen), following manufacturer's instructions. Briefly, nicotinamide adenine dinucleotide, human PARP1 and activated-DNA solution was added onto a 96-well plate. 54 repurchased small molecules, at 10 μM final concentration, were introduced onto the 96-well assay plate and incubated in a humid chamber at room temperature for 30 min in dark. Cycling mixture, with resazurin and cycling enzyme diaphorase, was then added and incubated further for 1 hr in dark. Reaction was terminated by adding the stopping buffer.
as §6, with “(Trevegen),” for “(Trevigen),”, “stopped” for “terminated”

[6] = tested on: human dermal fibroblast (HDF) primary cells; test: H2O2-resistance in primary human dermal fibroblasts; format: cell-based; details: YES/NO
NRF2 [7] = test: in vitro; format: cell-based, human; details: 10 uM; YES/NO
Procedure: as §4, §5
Of these, O15 and O20 consistently (in 3 of 3 experiments) required NRF2 to promote H2O2-resistance, and their resistance capacities were reduced by ˜90% on average upon NRF2 knockdown under conditions tested.

[8] = read-out: Induction of FOXO3-regulated genes: SOD2 normalized fold-change
[9] = Assay 2(z), 1.0 × 10^9 bacteria/ml, wild type + FuDR (2012 July), read-out: Lifespan assay in liquid
[10] = Assay 3(aa), 2.5 × 10^9 bacteria/ml, wild type + FuDR, read-out: Lifespan assay in liquid
[11] = Assay 4(ab), 2.0 × 10^10 bacteria/ml, CF512 worms, no FuDR, read-out: Lifespan assay on plates

T1 sequence (P09874 whole entry): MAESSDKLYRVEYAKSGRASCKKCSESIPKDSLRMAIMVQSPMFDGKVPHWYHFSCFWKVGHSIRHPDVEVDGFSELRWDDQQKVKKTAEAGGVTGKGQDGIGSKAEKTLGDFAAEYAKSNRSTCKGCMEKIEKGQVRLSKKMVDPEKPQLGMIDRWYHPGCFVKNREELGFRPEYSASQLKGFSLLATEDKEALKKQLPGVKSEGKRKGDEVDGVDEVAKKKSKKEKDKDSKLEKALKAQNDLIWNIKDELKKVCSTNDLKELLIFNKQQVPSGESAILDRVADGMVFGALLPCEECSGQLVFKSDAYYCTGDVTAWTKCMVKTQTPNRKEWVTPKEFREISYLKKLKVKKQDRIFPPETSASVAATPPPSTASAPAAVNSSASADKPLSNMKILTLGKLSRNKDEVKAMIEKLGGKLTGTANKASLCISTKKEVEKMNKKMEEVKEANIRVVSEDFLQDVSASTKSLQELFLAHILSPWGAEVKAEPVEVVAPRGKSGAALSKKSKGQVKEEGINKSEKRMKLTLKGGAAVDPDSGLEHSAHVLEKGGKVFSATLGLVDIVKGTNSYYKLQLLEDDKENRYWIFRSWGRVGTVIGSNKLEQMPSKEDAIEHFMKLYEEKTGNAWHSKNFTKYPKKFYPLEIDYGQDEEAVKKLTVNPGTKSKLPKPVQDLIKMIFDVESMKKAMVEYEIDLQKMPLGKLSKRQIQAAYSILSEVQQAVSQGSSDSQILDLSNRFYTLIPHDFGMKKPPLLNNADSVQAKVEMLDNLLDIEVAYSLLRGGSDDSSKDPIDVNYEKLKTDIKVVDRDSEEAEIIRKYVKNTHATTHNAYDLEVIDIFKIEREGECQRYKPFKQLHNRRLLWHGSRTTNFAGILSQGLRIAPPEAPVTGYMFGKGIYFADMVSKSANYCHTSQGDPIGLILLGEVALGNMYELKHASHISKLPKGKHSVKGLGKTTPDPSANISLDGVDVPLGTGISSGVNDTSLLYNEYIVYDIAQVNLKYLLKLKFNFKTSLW

## COc1cc(-c2nc(C(N)=O)c3nc(O)n(-c4cccc(C)c4)c3n2)cc(Br)c1O [O9]
[1]
  Potential killing effects on HTB-178 tumor cells, 1st: YES;
  Potential killing effects on HTB-178 tumor cells, 2nd: YES.
WI-38 cells [2]
  Assay 3: MMS-resistant: YES
  Assay 5: Triple resistant: YES
NRF2 [3]; read-out: Induction of NRF2-regulated genes: HMOX1 normalized fold-change
  fold induction at 10 µM: 1.97
NRF2 [3]; read-out: Induction of NRF2-regulated genes: NQO1 normalized fold-change
  fold induction at 10 µM: 1.32
WI-38 cells [4]
  Assay 4: H2O2- & Cd-resistant: YES
  Assay 2: Cadmium-resistant: YES
FOXO3; read-out: Induction of FOXO3-regulated genes: SESN1 normalized fold-change
  fold induction at 10 µM: 1.19
FOXO3; [8]
  fold induction at 10 µM: 1.15
FOXO3; read-out: Induction of FOXO3-regulated genes: TXNIP normalized fold-change
  fold induction at 10 µM: 1.72
WI-38 cells [5]
  Assay 1: H2O2-resistant: YES
  pEC50: 4.85
C. elegans; [9]
  ILS at 66 µM: 6.6%
C. elegans; [10]
  ILS at 66 µM: 1.3%
C. elegans; [11]
  ILS at 66 µM: -0.3%

## Oc1nnc(Cc2ccncc2)c2ccccc12 [Gr-2B]
[1]
  Potential killing effects on HTB-178 tumor cells, 1st: YES;
WI-38 cells [2]
  Assay 3: MMS-resistant: YES
  Assay 5: Triple resistant: YES
Human PARP1
  Inhibition of PARP1: inhibitors of PARP1; also recorded: PARP inhibitors
WI-38 cells [4]
  Assay 4: H2O2- & Cd-resistant: YES
  Assay 2: Cadmium-resistant: YES
WI-38 cells [5]
  Assay 1: H2O2-resistant: YES
  pEC50: 5.52
[6]
  Assay 6: H2O2-resistant, at 10 uM, human dermal fibroblast (HDF) primary cells: YES
C. elegans; [9]
  ILS at 66 µM: 2.5%
C. elegans; [10]
  ILS at 66 µM: -1.1%
C. elegans; [11]
  ILS at 66 µM: 14.1%

## CC(COc1ccc2c(c1)OCO2)NC(=O)Cc1nnc(O)c2ccccc12 (stereo not drawn) [Gr-2E]
[1]
  Potential killing effects on HTB-178 tumor cells, 1st: YES;
Human PARP1
  Inhibition of PARP1: PARP inhibitors
WI-38 cells [4]
  Assay 4: H2O2- & Cd-resistant: YES
  Assay 2: Cadmium-resistant: YES
WI-38 cells [5]
  Assay 1: H2O2-resistant: YES
  pEC50: 5.42
[6]
  Assay 6: H2O2-resistant, at 10 uM, human dermal fibroblast (HDF) primary cells: YES
C. elegans; [9]
  ILS at 66 µM: 3.3%
C. elegans; [10]
  ILS at 66 µM: 4%
C. elegans; [11]
  ILS at 66 µM: 9.7%
NRF2 [7]
  Assay 17: NRF2-dependency for H2O2-resistance: YES

## O=C(CCCc1nnc2n3nc(-c4ccccc4)nc3c3ccccc3n12)N1CCOCC1 [O8]
[1]
  Potential killing effects on HTB-178 tumor cells, 1st: YES;
NRF2 [3]; read-out: Induction of NRF2-regulated genes: GSTM1 normalized fold-change
  fold induction at 10 µM: 0.82
FOXO3; [8]
  fold induction at 10 µM: 1.07
WI-38 cells [5]
  pEC50: 4.70
[6]
  Assay 6: H2O2-resistant, at 10 uM, human dermal fibroblast (HDF) primary cells: YES
C. elegans; [9]
  ILS at 66 µM: 6.6%
C. elegans; [10]
  ILS at 66 µM: 3.8%
C. elegans; [11]
  ILS at 66 µM: 10%

## CC(Nc1cc(C)ccn1)=C(C#N)C#N [O16]
[1]
  Potential killing effects on HTB-178 tumor cells, 1st: YES;
  Potential killing effects on HTB-178 tumor cells, 2nd: YES.
WI-38 cells [5]
  pEC50: 4.70
[6]
  Assay 6: H2O2-resistant, at 10 uM, human dermal fibroblast (HDF) primary cells: YES
C. elegans; [9]
  ILS at 66 µM: 16.8%
C. elegans; [10]
  ILS at 66 µM: 11.4%
C. elegans; [11]
  ILS at 66 µM: 19.7%
C. elegans; Assay 5(ac), 1.0 × 10^11 bacteria/ml, CF512 worms, no FuDR, read-out: Lifespan assay on plates
  ILS at 66 µM: 9.8%
C. elegans; Assay 6(ad), 2.0 × 10^10 bacteria/ml, CF512 worms, no FuDR, read-out: Lifespan assay on plates
  ILS at 66 µM: 9.9%
C. elegans; Assay 7(ae), 1.0 × 10^11 bacteria/ml, CF512 worms, no FuDR, read-out: Lifespan assay on plates
  ILS at 66 µM: 12.1%
